Data reported in publication PMC8415315, “Maternal Serotonin Reuptake Inhibitor Antidepressants Have Acute Effects on Fetal Heart Rate Variability in Late Gestation” (Frontiers in Psychiatry, 2021).
Read-outs that look alike come from different tables or passages of the source.

Legend:
[1] = Maternal plasma drug concentrations by HPLC tandem mass spectrometry at 36-weeks' gestation; conditions: for Δ T3-T0, change in dose-adjusted plasma concentration: mean ± SE, from baseline (T0) to post-dose 3 (T3); for Pharmacokinetic phase at the post-dose fetal assessment: reached Cmax
Source text: To investigate chronic and acute SRI effects on the fetus, SRI-treated women were asked to withhold their typical morning oral dose until ~10h00, resulting in the AM/baseline and PM fetal assessments corresponding to pre-dose and post-dose periods, respectively. To characterize concurrent SRI pharmacokinetics across the study protocol, plasma drug concentrations were quantified at baseline (pre-dose) and four time-points post-dose; details on the drug level assay and pharmacologic variables are described below. Timing for each component of this study considered the need for a sufficient antidepressant baseline (pharmacologic trough), half-life, and time-to-peak plasma levels, weighted against length of study in effort to minimize maternal discomfort/inconvenience and potential effects of diurnal variations in the fetal variables obtained.
Changes in maternal plasma drug concentration between fetal assessments were determined by analyzing blood samples from SRI-treated mothers pre-dose (T0, baseline levels; ~08h00) and at four time-points post-dose: T1 (~10h30), T2 (~12h30), T3 (~13h30), and T4 (~14h30). Serum was separated by centrifugation at 3,000 × g for 10 min, transferred to polypropylene tubes and stored at −70°C until analysis. High performance liquid chromatography tandem mass spectrometry, performed offsite (CANTEST Ltd.; Burnaby, Canada), was used to determine levels of fluoxetine, norfluoxetine, paroxetine, sertraline, citalopram, escitalopram and venlafaxine.
Plasma drug concentrations were adjusted for maternal oral dose (ng/ml·mg). To quantify the relative change in maternal SRI level between the pre- and post-dose fetal assessments, the difference in dose-adjusted plasma drug concentration between T0 and T3 was determined. Plasma concentrations for metabolites were not reported as they reflect parent drugs.

[2] = design: method as in PMID 26765210; conditions: rodents; 2-h after maternal drug administration; ref [83]; cited from earlier work
[3] = Non-compartmental pharmacokinetic analysis of maternal SRI plasma levels; format: in vivo, human; conditions: for AUC(0-t) / Cmax: female, human, 36-weeks' gestation, daily oral dose; for AUC(0-t) / Cmax / Tpeak: mean ± SE; for AUC(0-t): area under the curve from T0 (baseline) to last measured plasma concentration (T4), SRI-treated women; for Cmax: maximum (peak) maternal plasma drug concentration; for Tpeak: time from baseline (T0) to reach Cmax, oral dose about 1.8 h after T0
Procedure: Maternal SRI plasma levels were further characterized by performing a non-compartmental pharmacokinetic analysis, yielding estimates of maximum plasma drug concentration (Cmax), time-to-peak (Tpeak) and area under the curve (AUClast). Pharmacokinetic variables were calculated using the PKNCA R package ([73]).

[4] = known value the observation is said to be consistent with; no reference given; cited from earlier work
fetal HR = conditions: acute exposure; ref [49]; cited from earlier work

CN(C)CCCC1(c2ccc(F)cc2)OCc2cc(C#N)ccc21 (stereo not shown) [Citalopram]
Δ T3-T0, change in dose-adjusted plasma concentration [1]: 3.2 ± 1.0 ng/ml·mg
Pharmacokinetic phase at the post-dose fetal assessment [1]: early elimination phase
Fetal citalopram exposure relative to the mother [2]: exceed that of the mother
AUC(0-t) [3]: 906 ± 271 ng·h/mL
Cmax [3]: 274 ± 92 ng/mL
Tpeak [3]: 4.9 ± 0.14 h

CNCCC(Oc1ccc(C(F)(F)F)cc1)c1ccccc1 (stereo not shown) [Fluoxetine]
Pharmacokinetic phase by the last blood collection (T4) [1]: absorption phase
Pharmacokinetic phase by the last blood collection (T4) ([1]; listed as fluoxetine): still in the absorption phase
Δ T3-T0, change in dose-adjusted plasma concentration [1]: 4.3 ± 2.5 ng/ml·mg
AUClast, total observed maternal drug exposure during study protocol (rank among antidepressants) [3]: highest
AUC(0-t) [3]: 3220 ± 1920 ng·h/mL
Cmax [3]: 613 ± 342 ng/mL
Tpeak [3]: 5.8 ± 1.0 h
Tpeak [4]: 6 to 8 h

Fc1ccc([C@@H]2CCNC[C@H]2COc2ccc3c(c2)OCO3)cc1 [Paroxetine]
Δ T3-T0, change in dose-adjusted plasma concentration [1]: 0.13 ± 0.21 ng/ml·mg
Pharmacokinetic phase at the post-dose fetal assessment [1]: early elimination phase
AUClast, total observed maternal drug exposure during study protocol (rank among antidepressants) [3]: lowest
AUC(0-t) [3]: 125 ± 66 ng·h/mL
Cmax [3]: 24 ± 5.2 ng/mL
Tpeak [3]: 4.6 ± 0.04 h

CN[C@H]1CC[C@@H](c2ccc(Cl)c(Cl)c2)c2ccccc21 [Sertraline]
Δ T3-T0, change in dose-adjusted plasma concentration [1]: 0.71 ± 0.53 ng/ml·mg
Pharmacokinetic phase at the post-dose fetal assessment [1]: early elimination phase
AUC(0-t) [3]: 728 ± 256 ng·h/mL
Cmax [3]: 197 ± 105 ng/mL
Tpeak [3]: 5.3 ± 0.18 h

COc1ccc(C(CN(C)C)C2(O)CCCCC2)cc1 (stereo not shown) [Venlafaxine]
Pharmacokinetic phase by the last blood collection (T4) [1]: still in the absorption phase
Δ T3-T0, change in dose-adjusted plasma concentration [1]: 0.43 ± 0.13 ng/ml·mg
AUC(0-t) [3]: 621 ± 314 ng·h/mL
Cmax [3]: 163 ± 74 ng/mL
Tpeak [3]: 5.7 ± 0.30 h

CN1CCC[C@H]1c1cccnc1 [nicotine]
Effect on fetal HR variability (fetal HR): decreased
